Values of other authors as cited in patent US7892575B2, “Orodispersible pharmaceutical composition for oromucosal or sublingual administration of agomelatine” (Les Laboratoires Servier, priority 2005, dated 2011).

Settings: humans

bioavailability by the oral route in relation to the parenteral route: very low
Structure (SMILES): COc1ccc2cccc(CCNC(C)=O)c2c1 [agomelatine, N-[2-(7-methoxy-1-naphthyl)ethyl]acetamide]
